Values after ≈ are worked out from the molar mass of the structure shown.
Tests used:
HT-1080 = test: Antiproliferative activity against human HT1080 cells by MTT assay; format: functional, cell-based
[1] = Antiproliferative activity against mouse Colon 26-L5 cells by MTT assay; format: functional, cell-based

Which results are given for `C=C1[C@@H](OC(C)=O)CC[C@@]2(C)C[C@H](OC(C)=O)C3=C(C)C[C@H](OC(=O)[C@@H](C)CC)[C@@H]([C@@H](OC(C)=O)[C@H]12)C3(C)C`?
EC50 (HT-1080): 84.9 µg/mL (≈ 155 µM); EC50 [1]: 84.1 µg/mL (≈ 154 µM)

With `COc1cc(C[C@@H](CO)[C@H](CO)Cc2ccc(O)c(OC)c2)ccc1O` [(+)-SECOISOLARICIRESINOL] as the compound, how does the EC50 (HT-1080) read?
The EC50 was 5.9 µg/mL (≈ 16.3 µM).

What about the EC50 [1] of the same compound?
The EC50 was 60.2 µg/mL (≈ 166 µM).

Which EC50 (HT-1080) does the source give for `COc1cc([C@H]2c3cc(O)c(OC)cc3C[C@H]3C(=O)OC[C@H]23)ccc1O` [ALPHA-CONIDENDRIN] here?
The EC50 was > 100 µg/mL.

And the EC50 [1]?
Its EC50 is > 100 µg/mL.

Which results are given for `O=c1[nH]cc(F)c(=O)[nH]1` [FLUOROURACIL]?
EC50 (HT-1080): 0.29 µg/mL (≈ 2.23 µM); EC50 [1]: 0.07 µg/mL (≈ 0.538 µM)

With `C=C1[C@@H](OC(C)=O)CC[C@@]2(C)C[C@H](O)C3=C(C)C[C@H](OC(=O)[C@@H](C)CC)[C@@H]([C@@H](OC(C)=O)[C@H]12)C3(C)C` [HONGDOUSHAN A] as the compound, how does the EC50 (HT-1080) read?
Its EC50 is 61 µg/mL (≈ 121 µM).

And the EC50 [1]?
Its EC50 is 40.1 µg/mL (≈ 79.5 µM).

Which results are given for `C=C1[C@@H](OC(C)=O)CC[C@@]2(C)C[C@H](O)C3=C(C)C[C@H](OC(=O)CC)[C@@H]([C@@H](OC(C)=O)[C@H]12)C3(C)C` [HONGDOUSHAN B]?
EC50 (HT-1080): > 100 µg/mL; EC50 [1]: 70.4 µg/mL (≈ 148 µM)

For `C=C1[C@@H](O)CC[C@@]2(C)C[C@H](O)C3=C(C)C[C@H](OC(=O)[C@@H](C)CC)[C@@H]([C@@H](OC(C)=O)[C@H]12)C3(C)C` [HONGDOUSHAN C], which EC50 (HT-1080) is on record?
The EC50 was 61.1 µg/mL (≈ 132 µM).

What about the EC50 [1] of the same compound?
The EC50 was 3.8 µg/mL (≈ 8.21 µM).

What does the source list for `C=C1[C@@H](OC(C)=O)CC[C@]2(C)[C@@H]1C[C@@H]1C[C@H](OC(C)=O)C(C)=C([C@@H](OC(C)=O)[C@@H]2OC(C)=O)C1(C)C` [TAXUSIN]?
EC50 (HT-1080): 61.4 µg/mL (≈ 122 µM); EC50 [1]: 51.7 µg/mL (≈ 102 µM)

What does the source list for `CC(=O)O[C@H]1C[C@]2(C(C)(C)O)C(=C1C)[C@@H](O)[C@@H](OC(=O)c1ccccc1)[C@]1(C)[C@@H](OC(C)=O)C[C@H](O)[C@@]3(OC(C)=O)CO[C@H]2[C@H]31` [TAXUYUNNANINE E]?
EC50 (HT-1080): > 100 µg/mL; EC50 [1]: > 100 µg/mL
